Experiment: Screening of different concentrations of the chelating agent GLDA (peracetic acid concentration over storage)
Format: physicochemical

## O=C([O-])CC[C@@H](C(=O)[O-])N(CC(=O)[O-])CC(=O)[O-].[Na+].[Na+].[Na+].[Na+] [GLDA, N,N-bis(carboxymethyl)-L-glutamic acid tetrasodium salt]
0.05 wt.-% GLDA in component (B), day 0, 23° C.
  peracetic acid concentration of the aqueous disinfectant solution: 2314 ppm
0.05 wt.-% GLDA in component (B), day 1, 23° C.
  peracetic acid concentration of the aqueous disinfectant solution: 2220 ppm
0.05 wt.-% GLDA in component (B), day 4, 23° C.
  peracetic acid concentration of the aqueous disinfectant solution: 1847 ppm
0.05 wt.-% GLDA in component (B), day 6, 23° C.
  peracetic acid concentration of the aqueous disinfectant solution: 1753 ppm
0.05 wt.-% GLDA in component (B), day 7, 23° C.
  peracetic acid concentration of the aqueous disinfectant solution: 1653 ppm
0.05 wt.-% GLDA in component (B), day 8, 23° C.
  peracetic acid concentration of the aqueous disinfectant solution: 1563 ppm
0.05 wt.-% GLDA in component (B), day 9, 23° C.
  peracetic acid concentration of the aqueous disinfectant solution: 1466 ppm
0.05 wt.-% GLDA in component (B), day 15, 23° C.
  peracetic acid concentration of the aqueous disinfectant solution: 829 ppm
0.1 wt.-% GLDA in component (B), day 0, 23° C.
  peracetic acid concentration of the aqueous disinfectant solution: 2346 ppm
0.1 wt.-% GLDA in component (B), day 1, 23° C.
  peracetic acid concentration of the aqueous disinfectant solution: 2202 ppm
0.1 wt.-% GLDA in component (B), day 4, 23° C.
  peracetic acid concentration of the aqueous disinfectant solution: 1856 ppm
0.1 wt.-% GLDA in component (B), day 6, 23° C.
  peracetic acid concentration of the aqueous disinfectant solution: 1793 ppm
0.1 wt.-% GLDA in component (B), day 7, 23° C.
  peracetic acid concentration of the aqueous disinfectant solution: 1682 ppm
0.1 wt.-% GLDA in component (B), day 8, 23° C.
  peracetic acid concentration of the aqueous disinfectant solution: 1636 ppm
0.1 wt.-% GLDA in component (B), day 9, 23° C.
  peracetic acid concentration of the aqueous disinfectant solution: 1566 ppm
0.1 wt.-% GLDA in component (B), day 15, 23° C.
  peracetic acid concentration of the aqueous disinfectant solution: 1075 ppm
0.1 wt.-% GLDA in the stabilizer component (B)
  stabilisation of peracetic acid, comparison of GLDA concentrations: best stabilisation
0.5 wt.-% GLDA in component (B), day 0, 23° C.
  peracetic acid concentration of the aqueous disinfectant solution: 2408 ppm
0.5 wt.-% GLDA in component (B), day 1, 23° C.
  peracetic acid concentration of the aqueous disinfectant solution: 2113 ppm
0.5 wt.-% GLDA in component (B), day 4, 23° C.
  peracetic acid concentration of the aqueous disinfectant solution: 1821 ppm
0.5 wt.-% GLDA in component (B), day 6, 23° C.
  peracetic acid concentration of the aqueous disinfectant solution: 1718 ppm
0.5 wt.-% GLDA in component (B), day 7, 23° C.
  peracetic acid concentration of the aqueous disinfectant solution: 1682 ppm
0.5 wt.-% GLDA in component (B), day 8, 23° C.
  peracetic acid concentration of the aqueous disinfectant solution: 1625 ppm
0.5 wt.-% GLDA in component (B), day 9, 23° C.
  peracetic acid concentration of the aqueous disinfectant solution: 1512 ppm
0.5 wt.-% GLDA in component (B), day 15, 23° C.
  peracetic acid concentration of the aqueous disinfectant solution: 1016 ppm
Component (B) comprised 0.05 wt.-%, 0.1 wt.-% or 0.5 wt.-% GLDA
  shelf life of the aqueous disinfectant use solution: about 14 days

From patent US11140896B2, “Two components disinfecting composition containing peracetic acid and chelating agent” (ECOLAB USA INC., priority 2014, dated 2021)
